Assay results as given in ChEMBL document CHEMBL5131541, “Structural Feature Analyzation Strategies toward Discovery of Orally Bioavailable PROTACs of Bruton's Tyrosine Kinase for the Treatment of Lymphoma” (J Med Chem, 2022).

Assays:
[1] = target: T1, Tyrosine-protein kinase BTK (Homo sapiens, UniProt Q06187); experiment: Inhibition of BTK (unknown origin)
[2] = target: T1, Tyrosine-protein kinase BTK; experiment: Induction of BTK degradation in human MINO cells incubated for 24 hrs by Western blot; type: cell-based; details: dose 1-1000 nM, DDE = dose-dependent effect
[3] = Half life in Sprague-Dawley rat at 5 to 10 mg/kg, po administered as cassette dose measured upto 24 hrs by LC-MS analysis; type: ADME, organism-based; details: in vivo, dose 5-10 mg/kg
[4] = Dose normalized AUC (0 to t) in Sprague-Dawley rat at 5 to 10 mg/kg, po administered as cassette dose measured upto 24 hrs by LC-MS analysis; type: ADME, organism-based; details: in vivo, dose 5-10 mg/kg
[5] = AUC (0 to t) in Sprague-Dawley rat at 5 to 10 mg/kg, po administered as cassette dose measured upto 24 hrs by LC-MS analysis; type: ADME, organism-based; parameters: time < 24 hrs, route po; details: in vivo, dose 5-10 mg/kg
[6] = Tmax in Sprague-Dawley rat at 5 to 10 mg/kg, po administered as cassette dose measured upto 24 hrs by LC-MS analysis; type: ADME, organism-based; details: in vivo, dose 5-10 mg/kg
[7] = Cmax in Sprague-Dawley rat at 5 to 10 mg/kg, po administered as cassette dose measured upto 24 hrs by LC-MS analysis; type: ADME, organism-based; parameters: time < 24 hrs, route po; details: in vivo, dose 5-10 mg/kg
[8] = AUC (0 to t) in ICR mouse at 100 mg/kg, po measured upto 48 hrs by LC/MS analysis; type: ADME, organism-based; parameters: time < 48 hrs, dose 100 mg/kg, route po; details: in vivo
[9] = Cmax in ICR mouse at 100 mg/kg, po measured upto 48 hrs by LC/MS analysis; type: ADME, organism-based; parameters: dose 100 mg/kg, time < 48 hrs, route po; details: in vivo
JeKo-1 [10] = experiment: cells; details: Homo sapiens
[11] = AUC (0 to infinity) in ICR mouse at 100 mg/kg, po measured upto 48 hrs by LC/MS analysis; type: ADME, organism-based; parameters: time < 48 hrs, dose 100 mg/kg, route po; details: in vivo
[12] = Half life in ICR mouse at 100 mg/kg, po measured upto 48 hrs by LC/MS analysis; type: ADME, organism-based; details: in vivo
[13] = Tmax in ICR mouse at 100 mg/kg, po measured upto 48 hrs by LC/MS analysis; type: ADME, organism-based; details: in vivo
JeKo-1 [14] = experiment: cells; details: Homo sapiens; remark: listed apart in the source

T1 sequence (Q06187 whole entry): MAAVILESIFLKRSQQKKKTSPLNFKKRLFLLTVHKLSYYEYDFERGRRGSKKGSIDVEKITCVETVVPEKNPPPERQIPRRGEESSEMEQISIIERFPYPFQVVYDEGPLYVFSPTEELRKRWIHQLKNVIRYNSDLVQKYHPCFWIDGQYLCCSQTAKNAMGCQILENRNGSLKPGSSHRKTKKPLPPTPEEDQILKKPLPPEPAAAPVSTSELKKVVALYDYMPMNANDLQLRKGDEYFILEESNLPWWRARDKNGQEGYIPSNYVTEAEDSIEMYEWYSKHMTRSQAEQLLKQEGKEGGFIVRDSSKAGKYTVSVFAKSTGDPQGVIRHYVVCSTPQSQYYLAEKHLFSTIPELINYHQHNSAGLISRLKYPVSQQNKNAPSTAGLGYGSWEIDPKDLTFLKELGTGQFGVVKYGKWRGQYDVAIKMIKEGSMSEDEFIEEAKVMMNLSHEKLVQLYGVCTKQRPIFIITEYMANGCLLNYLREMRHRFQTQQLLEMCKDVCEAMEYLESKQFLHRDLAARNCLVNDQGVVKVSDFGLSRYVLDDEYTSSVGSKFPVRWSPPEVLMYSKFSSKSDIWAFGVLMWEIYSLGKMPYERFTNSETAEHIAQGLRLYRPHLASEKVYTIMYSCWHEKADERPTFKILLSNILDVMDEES

SMILES	IC50 [1] [nM]	Activity [2]	half-life [3] [h]	AUCt/dose [4] [ng·h/mL/mg]	AUC(0-t) at 24 h [5] [ng·h/mL]	Tmax [6] [h]	Cmax [7] [ng/mL]	AUC(0-t) at 48 h [8] [ng·h/mL]	Cmax [9] [ng/mL]	IC50 (JeKo-1 [10]) [nM]	AUC(0-inf) [11] [ng·h/mL]	half-life [12] [h]	Tmax [13] [h]	IC50 (JeKo-1 [14]) [nM]
Nc1ncnc2c1c(-c1ccc(Oc3ccccc3)cc1)nn2[C@@H]1CCCN(C(=O)CCCCCCC(=O)NCC#CCN2CCN(CC#Cc3ccc4c(c3)CN(C3CCC(=O)NC3=O)C4=O)CC2)C1 (some centres not stated)	9	Dde	–	–	–	–	–	–	–	–	–	–	–	–
Nc1ncnc2c1c(-c1ccc(Oc3ccccc3)cc1)nn2[C@@H]1CCCN(C(=O)/C=C/C(=O)NCC#CCN2CCN(CC#Cc3ccc4c(c3)CN(C3CCC(=O)NC3=O)C4=O)CC2)C1 (some centres not stated)	9	Dde	1.5	2	20	0.6	15	–	–	–	–	–	–	–
Nc1ncnc2c1c(-c1ccc(Oc3ccccc3)cc1)nn2[C@@H]1CCCN(C(=O)[C@H]2CCCC[C@H]2C(=O)NCC#CCN2CCN(CC#Cc3ccc4c(c3)CN(C3CCC(=O)NC3=O)C4=O)CC2)C1 (some centres not stated)	9	Dde	1.4	25	247	0.6	125	62	52	> 20000	81	1	0.7	792
Nc1ncnc2c1c(-c1ccc(Oc3ccccc3)cc1)nn2[C@@H]1CCCN(C(=O)[C@H]2CCCC[C@H]2C(=O)N2CCN(CC#Cc3ccc4c(c3)CN(C3CCC(=O)NC3=O)C4=O)CC2)C1 (some centres not stated)	9	Dde	2	6	58	0.5	29	–	–	–	–	–	–	–
Nc1ncnc2c1c(-c1ccc(Oc3ccccc3)cc1)nn2[C@@H]1CCCN(C(=O)[C@H]2CC[C@H](C(=O)N3CCN(CC#Cc4ccc5c(c4)CN(C4CCC(=O)NC4=O)C5=O)CC3)CC2)C1 (some centres not stated)	9	Dde	0.8	2	24	0.6	16	–	–	> 20000	–	–	–	1940
Nc1ncnc2c1c(-c1ccc(Oc3ccccc3)cc1)nn2[C@@H]1CCCN(C(=O)C2(C(=O)NCC#CCN3CCN(CC#Cc4ccc5c(c4)CN(C4CCC(=O)NC4=O)C5=O)CC3)CC2)C1 (some centres not stated)	9	Dde	1.7	15	145	0.3	77	–	–	–	–	–	–	–
Nc1ncnc2c1c(-c1ccc(Oc3ccccc3)cc1)nn2[C@@H]1CCCN(C(=O)C2(C(=O)N3CCN(CC#Cc4ccc5c(c4)CN(C4CCC(=O)NC4=O)C5=O)CC3)CC2)C1 (some centres not stated)	9	Dde	2.3	253	2530	0.9	782	–	–	–	–	–	–	–
Nc1ncnc2c1c(-c1ccc(Oc3ccccc3)cc1)nn2[C@@H]1CCCN(C(=O)/C=C/C(=O)N2CCN(CC#Cc3ccc4c(c3)CN(C3CCC(=O)NC3=O)C4=O)CC2)C1 (some centres not stated)	9	Dde	–	–	–	–	–	–	–	4960	–	–	–	296
Nc1ncnc2c1c(-c1ccc(Oc3ccccc3)cc1)nn2[C@@H]1CCCN(C(=O)CCC(=O)NCC#CCN2CCN(CC#Cc3ccc4c(c3)CN(C3CCC(=O)NC3=O)C4=O)CC2)C1 (some centres not stated)	9	Dde	–	–	–	–	–	–	–	–	–	–	–	–
O=C1CCC(N2C(=O)c3cccc(N4CCN(C5CCN(CCCCOc6ccc(C(F)(F)F)cc6)CC5)CC4)c3C2=O)C(=O)N1 (configuration not stated)	–	–	5.3	116	1160	4.7	71	–	–	–	–	–	–	–
Nc1ncnc2c1c(-c1ccc(Oc3ccccc3)cc1)nn2[C@@H]1CCCN(C(=O)[C@H]2CC[C@H](C(=O)NCC#CCN3CCN(CC#Cc4ccc5c(c4)CN(C4CCC(=O)NC4=O)C5=O)CC3)CC2)C1 (some centres not stated)	9	Dde	1.5	11	112	0.5	69	–	–	–	–	–	–	–
Nc1ncnc2c1c(-c1ccc(Oc3ccccc3)cc1)nn2[C@@H]1CCCN(C(=O)CCCCC(=O)NCC#CCN2CCN(CC#Cc3ccc4c(c3)CN(C3CCC(=O)NC3=O)C4=O)CC2)C1 (some centres not stated)	9	Dde	–	–	–	–	–	–	–	–	–	–	–	–
O=C1CCC(N2C(=O)c3cccc(N4CCN(CC5CCN(CCCCOc6ccc(C(F)(F)F)cc6)CC5)CC4)c3C2=O)C(=O)N1 (configuration not stated)	–	–	112	113	1130	10.7	68	–	–	–	–	–	–	–
O=C1CCC(N2C(=O)c3cccc(N4CCN(C5CCN(CC#CCOc6ccc(C(F)(F)F)cc6)CC5)CC4)c3C2=O)C(=O)N1 (configuration not stated)	–	–	9.7	143	142	1.2	269	–	–	–	–	–	–	–

Now from value to compound:

IC50 [1] [nM]	Activity [2]	half-life [3] [h]	AUCt/dose [4] [ng·h/mL/mg]	AUC(0-t) at 24 h [5] [ng·h/mL]	Tmax [6] [h]	Cmax [7] [ng/mL]	AUC(0-t) at 48 h [8] [ng·h/mL]	Cmax [9] [ng/mL]	IC50 (JeKo-1 [10]) [nM]	AUC(0-inf) [11] [ng·h/mL]	half-life [12] [h]	Tmax [13] [h]	IC50 (JeKo-1 [14]) [nM]	SMILES
–	–	8.9	435	4350	11	419	–	–	–	–	–	–	–	O=C1CCC(N2C(=O)c3cccc(N4CCN(CC5CCN(CC#CCOc6ccc(C(F)(F)F)cc6)CC5)CC4)c3C2=O)C(=O)N1 (configuration not stated)
–	–	14	194	1940	2.8	200	–	–	–	–	–	–	–	O=C1CCC(N2C(=O)c3ccc(N4CCN(CC#CCN5CCN(c6ccc(C(F)(F)F)cc6)CC5)CC4)cc3C2=O)C(=O)N1 (configuration not stated)
–	–	–	796	7960	8.5	1250	–	–	–	–	–	–	–	O=C1CCC(N2Cc3ccc(C#CCN4CCN(CC#CCOc5ccc(C(F)(F)F)cc5)CC4)cc3C2=O)C(=O)N1 (configuration not stated)
–	–	5.7	128	49	0.3	232	–	–	–	–	–	–	–	O=C1CCC(N2Cc3c(OC4CN(CC#CCN5CCN(c6ccc(C(F)(F)F)cc6)CC5)C4)cccc3C2=O)C(=O)N1 (configuration not stated)
–	–	2.2	47	236	0.3	99	–	–	–	–	–	–	–	O=C1CCC(N2Cc3cc(CCCN4CCN(CC#CCOc5ccc(C(F)(F)F)cc5)CC4)ccc3C2=O)C(=O)N1 (configuration not stated)
–	–	4	1527	15300	6.7	1050	–	–	–	–	–	–	–	O=C1CCC(N2Cc3cc(C#CCN4CCN(c5ccc(C(F)(F)F)cc5)CC4)ccc3C2=O)C(=O)N1 (configuration not stated)
–	–	8.6	708	7080	1.2	1050	–	–	–	–	–	–	–	O=C1CCC(N2C(=O)c3ccc(N4CCN(C5CN(CC#CCOc6ccc(C(F)(F)F)cc6)C5)CC4)cc3C2=O)C(=O)N1 (configuration not stated)
–	–	10.3	172	1720	0.9	194	–	–	–	–	–	–	–	O=C1CCC(N2C(=O)c3cccc(N4CCN(CC#CCN5CCN(c6ccc(C(F)(F)F)cc6)CC5)CC4)c3C2=O)C(=O)N1 (configuration not stated)
–	–	17.7	65	328	3.7	24	–	–	–	–	–	–	–	O=C1CCC(N2C(=O)c3cccc(NCCN4CCN(CC#CCOc5ccc(C(F)(F)F)cc5)CC4)c3C2=O)C(=O)N1 (configuration not stated)
–	–	6	1524	15200	8.3	1550	–	–	–	–	–	–	–	O=C1CCC(N2Cc3cc(C#CCN4CCN(CC#CCOc5ccc(C(F)(F)F)cc5)CC4)ccc3C2=O)C(=O)N1 (configuration not stated)
–	–	3.4	281	2810	10	223	–	–	–	–	–	–	–	O=C1CCC(N2C(=O)c3ccc(N4CCN(C5CN(CCCCOc6ccc(C(F)(F)F)cc6)C5)CC4)cc3C2=O)C(=O)N1 (configuration not stated)
